Test results: publication PMC6874179, “Development of Macrocycle Kinase Inhibitors for ALK2 Using Fibrodysplasia Ossificans Progressiva‐Derived Endothelial Cells” (JBMR Plus, 2019)

Legend:
[1] = target: T1, CDK2_cyclinE (Homo sapiens, UniProt P24941); test: Proqinase Kinase profiling; type: biochemical; settings: read-out: % inhibition at 100nM
T1 construct: purchased DiscoverX

[2] = target: T2, KIT_A829P (Homo sapiens, UniProt P10721, A829P); test: Proqinase Kinase profiling; type: biochemical; settings: read-out: % inhibition at 100nM
T2 construct: purchased DiscoverX

[3] = target: T3, ITK (Homo sapiens, UniProt Q08881); test: Proqinase Kinase profiling; type: biochemical; settings: read-out: % inhibition at 100nM
T3 construct: purchased DiscoverX

[4] = target: T4, MET_Y1230C (Homo sapiens, UniProt P08581, Y1230C); test: Proqinase Kinase profiling; type: biochemical; settings: read-out: % inhibition at 100nM
T4 construct: purchased DiscoverX

[5] = target: T5, AURKB (Homo sapiens, UniProt Q96GD4); test: Proqinase Kinase profiling; type: biochemical; settings: read-out: % inhibition at 100nM
T5 construct: purchased DiscoverX

[6] = target: T6, CDK4_cyclinD3 (Homo sapiens, UniProt P11802); test: Proqinase Kinase profiling; type: biochemical; settings: read-out: % inhibition at 100nM
T6 construct: purchased DiscoverX

[7] = target: T7, PLK2 (Homo sapiens, UniProt Q9NYY3); test: Proqinase Kinase profiling; type: biochemical; settings: read-out: % inhibition at 100nM
T7 construct: purchased DiscoverX
T7 sequence (Q9NYY3 whole entry): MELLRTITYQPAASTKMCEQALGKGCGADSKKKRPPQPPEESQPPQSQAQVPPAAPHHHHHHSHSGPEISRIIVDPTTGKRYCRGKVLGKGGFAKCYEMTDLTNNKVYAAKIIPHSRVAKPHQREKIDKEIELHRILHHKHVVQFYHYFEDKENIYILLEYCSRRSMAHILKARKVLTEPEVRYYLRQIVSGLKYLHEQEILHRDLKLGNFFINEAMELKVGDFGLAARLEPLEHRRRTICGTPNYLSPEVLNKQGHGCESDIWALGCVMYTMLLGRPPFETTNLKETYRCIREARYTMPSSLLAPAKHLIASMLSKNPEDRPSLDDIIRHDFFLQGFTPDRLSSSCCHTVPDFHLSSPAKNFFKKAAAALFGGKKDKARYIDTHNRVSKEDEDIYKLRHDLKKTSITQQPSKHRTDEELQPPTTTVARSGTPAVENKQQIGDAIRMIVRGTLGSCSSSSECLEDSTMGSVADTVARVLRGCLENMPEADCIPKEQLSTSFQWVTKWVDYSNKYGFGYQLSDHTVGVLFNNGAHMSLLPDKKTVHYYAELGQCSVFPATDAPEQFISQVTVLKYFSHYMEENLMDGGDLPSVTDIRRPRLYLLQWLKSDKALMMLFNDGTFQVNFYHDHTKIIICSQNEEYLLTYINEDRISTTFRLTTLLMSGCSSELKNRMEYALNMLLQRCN

[8] = target: T8, MAP3K10 (Homo sapiens, UniProt Q02779); test: Proqinase Kinase profiling; type: biochemical; settings: read-out: % inhibition at 100nM
T8 construct: purchased DiscoverX

[9] = target: T9, INSR (Homo sapiens, UniProt P06213); test: Proqinase Kinase profiling; type: biochemical; settings: read-out: % inhibition at 100nM
T9 construct: purchased DiscoverX
T9 sequence (P06213 28-1382): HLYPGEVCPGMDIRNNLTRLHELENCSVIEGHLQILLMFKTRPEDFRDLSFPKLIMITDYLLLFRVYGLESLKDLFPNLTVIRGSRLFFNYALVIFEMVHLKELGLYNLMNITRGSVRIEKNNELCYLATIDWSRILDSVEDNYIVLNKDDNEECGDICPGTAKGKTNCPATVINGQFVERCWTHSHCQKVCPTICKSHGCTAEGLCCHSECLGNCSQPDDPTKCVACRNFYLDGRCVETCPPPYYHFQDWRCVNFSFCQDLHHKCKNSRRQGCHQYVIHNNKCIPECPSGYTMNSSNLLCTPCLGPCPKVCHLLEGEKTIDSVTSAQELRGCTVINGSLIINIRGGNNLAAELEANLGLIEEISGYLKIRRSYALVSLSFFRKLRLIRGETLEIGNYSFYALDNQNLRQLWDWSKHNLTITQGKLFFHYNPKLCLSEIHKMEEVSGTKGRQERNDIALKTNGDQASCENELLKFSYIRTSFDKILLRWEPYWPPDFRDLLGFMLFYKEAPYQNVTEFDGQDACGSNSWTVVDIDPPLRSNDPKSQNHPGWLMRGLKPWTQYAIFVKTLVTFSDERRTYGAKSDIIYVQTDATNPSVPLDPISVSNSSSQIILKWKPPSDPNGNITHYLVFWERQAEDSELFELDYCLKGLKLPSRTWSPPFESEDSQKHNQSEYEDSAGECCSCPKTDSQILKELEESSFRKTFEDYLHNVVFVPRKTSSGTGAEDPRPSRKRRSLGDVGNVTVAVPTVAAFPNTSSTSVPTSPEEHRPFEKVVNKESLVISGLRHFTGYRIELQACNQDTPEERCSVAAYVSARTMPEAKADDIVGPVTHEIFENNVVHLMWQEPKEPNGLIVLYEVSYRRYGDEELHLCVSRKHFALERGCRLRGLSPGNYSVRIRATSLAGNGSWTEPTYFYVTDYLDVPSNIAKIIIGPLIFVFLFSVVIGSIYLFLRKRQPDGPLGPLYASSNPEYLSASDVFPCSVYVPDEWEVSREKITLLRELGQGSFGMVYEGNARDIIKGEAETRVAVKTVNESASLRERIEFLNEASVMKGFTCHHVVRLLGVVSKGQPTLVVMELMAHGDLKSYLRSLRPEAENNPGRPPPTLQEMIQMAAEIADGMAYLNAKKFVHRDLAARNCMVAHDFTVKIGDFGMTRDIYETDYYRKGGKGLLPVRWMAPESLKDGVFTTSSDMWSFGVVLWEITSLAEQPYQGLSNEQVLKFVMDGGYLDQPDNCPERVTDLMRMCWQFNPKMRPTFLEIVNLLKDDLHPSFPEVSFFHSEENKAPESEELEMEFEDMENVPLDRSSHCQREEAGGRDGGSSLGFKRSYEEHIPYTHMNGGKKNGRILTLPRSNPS

[10] = target: T10, INSRR (Homo sapiens, UniProt P14616); test: Proqinase Kinase profiling; type: biochemical; settings: read-out: % inhibition at 100nM
T10 construct: purchased DiscoverX

[11] = target: T11, MAP4K5 (Homo sapiens, UniProt Q9Y4K4); test: Proqinase Kinase profiling; type: biochemical; settings: read-out: % inhibition at 100nM
T11 construct: purchased DiscoverX

[12] = target: T12, FRK (Homo sapiens, UniProt P42685); test: Proqinase Kinase profiling; type: biochemical; settings: read-out: % inhibition at 100nM
T12 construct: purchased DiscoverX

[13] = target: T13, caALK2 (Homo sapiens, UniProt Q04771, Q207D); test: BRE-LUC with constitutive active ALK2 in C2C12 cells; type: cell-based; settings: compound 0.5μM 16 hours
T13 construct: expressed in transfected cells; host or cells: C2C12 murine myofibroblast cells
Method: Compounds were added for 16 hours at 0.5μM before luciferase activity was measured.
For luciferase reporter assays, cells were seeded in 24-well plates and transfected with DharmaFECT Duo (Fisher Scientific, Landsmeer, The Netherlands), following the recommendations of the manufacturer. 48 hours after transfection the cells were harvested and lysed. […] Each transfection mixture was equalized with empty vector when necessary and every experiment was performed in triplicate.

[14] = target: T14, CLK3 (Homo sapiens, UniProt P49761); test: Proqinase Kinase profiling; type: biochemical; settings: read-out: % inhibition at 100nM
T14 construct: purchased DiscoverX

[15] = target: T15, CAMK2B (Homo sapiens, UniProt Q13554); test: Proqinase Kinase profiling; type: biochemical; settings: read-out: % inhibition at 100nM
T15 construct: purchased DiscoverX

[16] = target: T16, NEK2 (Homo sapiens, UniProt P51955); test: Proqinase Kinase profiling; type: biochemical; settings: read-out: % inhibition at 100nM
T16 construct: purchased DiscoverX
T16 sequence (P51955 whole entry): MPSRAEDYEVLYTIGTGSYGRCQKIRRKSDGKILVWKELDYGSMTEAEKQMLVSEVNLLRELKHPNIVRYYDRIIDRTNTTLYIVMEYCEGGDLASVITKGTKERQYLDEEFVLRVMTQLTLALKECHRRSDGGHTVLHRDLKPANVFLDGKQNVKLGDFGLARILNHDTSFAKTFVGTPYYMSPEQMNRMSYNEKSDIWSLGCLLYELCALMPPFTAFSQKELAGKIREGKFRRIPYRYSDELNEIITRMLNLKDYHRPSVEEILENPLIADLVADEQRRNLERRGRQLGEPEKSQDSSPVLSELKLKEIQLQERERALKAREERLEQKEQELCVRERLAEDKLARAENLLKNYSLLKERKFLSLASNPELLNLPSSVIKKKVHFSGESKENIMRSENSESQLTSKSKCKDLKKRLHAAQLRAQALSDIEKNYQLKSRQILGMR

[17] = target: T17, RET_M918T (Homo sapiens, UniProt P07949, M918T); test: Proqinase Kinase profiling; type: biochemical; settings: read-out: % inhibition at 100nM
T17 construct: purchased DiscoverX

[18] = target: T18, GSK3B (Homo sapiens, UniProt P49841); test: Proqinase Kinase profiling; type: biochemical; settings: read-out: % inhibition at 100nM
T18 construct: purchased DiscoverX

[19] = target: T19, RET_E762Q (Homo sapiens, UniProt P07949, E762Q); test: Proqinase Kinase profiling; type: biochemical; settings: read-out: % inhibition at 100nM
T19 construct: purchased DiscoverX
T19 sequence (P07949 29-1114 E762Q): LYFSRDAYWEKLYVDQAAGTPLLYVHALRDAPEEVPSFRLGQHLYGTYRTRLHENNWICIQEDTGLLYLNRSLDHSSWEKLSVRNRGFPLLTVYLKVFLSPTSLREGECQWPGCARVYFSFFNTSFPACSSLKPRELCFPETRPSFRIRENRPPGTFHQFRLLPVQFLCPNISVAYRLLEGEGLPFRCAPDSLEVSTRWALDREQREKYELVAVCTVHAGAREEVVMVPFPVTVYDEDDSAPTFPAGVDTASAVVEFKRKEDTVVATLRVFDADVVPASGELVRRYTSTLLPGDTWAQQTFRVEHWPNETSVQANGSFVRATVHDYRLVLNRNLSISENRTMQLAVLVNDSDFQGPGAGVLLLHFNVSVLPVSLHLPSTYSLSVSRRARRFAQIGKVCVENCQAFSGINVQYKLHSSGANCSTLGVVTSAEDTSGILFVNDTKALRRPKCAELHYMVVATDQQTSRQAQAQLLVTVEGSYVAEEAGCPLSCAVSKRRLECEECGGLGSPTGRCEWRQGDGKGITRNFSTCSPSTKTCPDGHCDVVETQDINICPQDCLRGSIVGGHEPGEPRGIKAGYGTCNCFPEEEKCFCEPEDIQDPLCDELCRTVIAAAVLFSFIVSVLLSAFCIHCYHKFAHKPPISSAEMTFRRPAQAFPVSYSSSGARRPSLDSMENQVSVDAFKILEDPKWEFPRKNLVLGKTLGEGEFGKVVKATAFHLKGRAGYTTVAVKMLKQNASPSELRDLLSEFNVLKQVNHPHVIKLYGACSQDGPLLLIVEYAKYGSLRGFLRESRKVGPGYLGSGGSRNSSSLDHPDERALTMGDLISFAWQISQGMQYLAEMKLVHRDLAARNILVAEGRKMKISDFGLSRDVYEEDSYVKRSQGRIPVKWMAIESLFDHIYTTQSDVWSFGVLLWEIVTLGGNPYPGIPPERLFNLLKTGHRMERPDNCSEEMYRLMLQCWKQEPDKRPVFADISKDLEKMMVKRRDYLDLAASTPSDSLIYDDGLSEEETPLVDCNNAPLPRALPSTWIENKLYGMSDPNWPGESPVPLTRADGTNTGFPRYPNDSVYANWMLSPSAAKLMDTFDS

[20] = target: T20, ABL2 (Homo sapiens, UniProt P42684); test: Proqinase Kinase profiling; type: biochemical; settings: read-out: % inhibition at 100nM
T20 construct: purchased DiscoverX

[21] = target: T21, TTK (Homo sapiens, UniProt P33981); test: Proqinase Kinase profiling; type: biochemical; settings: read-out: % inhibition at 100nM
T21 construct: purchased DiscoverX

[22] = target: T22, JAK3 (Homo sapiens, UniProt P52333); test: Proqinase Kinase profiling; type: biochemical; settings: read-out: % inhibition at 100nM
T22 construct: purchased DiscoverX

[23] = target: T23, DYRK4 (Homo sapiens, UniProt Q9NR20); test: Proqinase Kinase profiling; type: biochemical; settings: read-out: % inhibition at 100nM
T23 construct: purchased DiscoverX

[24] = target: T24, CDK3_cyclinE (Homo sapiens, UniProt Q00526); test: Proqinase Kinase profiling; type: biochemical; settings: read-out: % inhibition at 100nM
T24 construct: purchased DiscoverX

[25] = target: T25, FGFR2 (Homo sapiens, UniProt P21802); test: Proqinase Kinase profiling; type: biochemical; settings: read-out: % inhibition at 100nM
T25 construct: purchased DiscoverX
T25 sequence (P21802 22-821): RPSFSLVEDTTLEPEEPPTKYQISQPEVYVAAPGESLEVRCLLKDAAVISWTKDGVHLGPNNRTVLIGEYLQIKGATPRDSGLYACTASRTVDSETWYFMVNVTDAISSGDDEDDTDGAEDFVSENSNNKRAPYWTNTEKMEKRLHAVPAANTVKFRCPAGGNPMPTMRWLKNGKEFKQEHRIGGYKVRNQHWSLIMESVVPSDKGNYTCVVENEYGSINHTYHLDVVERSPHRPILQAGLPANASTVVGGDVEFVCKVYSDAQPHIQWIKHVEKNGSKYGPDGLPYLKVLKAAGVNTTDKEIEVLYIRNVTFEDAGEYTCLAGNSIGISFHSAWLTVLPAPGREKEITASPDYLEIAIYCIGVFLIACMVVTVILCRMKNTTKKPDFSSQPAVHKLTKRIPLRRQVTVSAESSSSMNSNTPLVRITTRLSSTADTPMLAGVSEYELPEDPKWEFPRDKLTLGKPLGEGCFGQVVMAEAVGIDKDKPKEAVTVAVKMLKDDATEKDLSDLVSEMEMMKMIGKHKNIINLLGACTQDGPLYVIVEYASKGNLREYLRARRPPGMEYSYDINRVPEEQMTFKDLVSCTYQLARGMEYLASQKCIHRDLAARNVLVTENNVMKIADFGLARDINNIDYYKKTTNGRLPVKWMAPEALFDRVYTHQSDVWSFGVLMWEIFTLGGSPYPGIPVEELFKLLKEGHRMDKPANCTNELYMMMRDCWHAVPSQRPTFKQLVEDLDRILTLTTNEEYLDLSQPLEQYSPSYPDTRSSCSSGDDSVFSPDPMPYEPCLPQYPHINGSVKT

[26] = target: T26, LRRK2_I2020T (Homo sapiens, UniProt Q5S007, I2020T); test: Proqinase Kinase profiling; type: biochemical; settings: read-out: % inhibition at 100nM
T26 construct: purchased DiscoverX

[27] = target: T27, FGR (Homo sapiens, UniProt P09769); test: Proqinase Kinase profiling; type: biochemical; settings: read-out: % inhibition at 100nM
T27 construct: purchased DiscoverX

[28] = target: T28, ROS1 (Homo sapiens, UniProt P08922); test: Proqinase Kinase profiling; type: biochemical; settings: read-out: % inhibition at 100nM
T28 construct: purchased DiscoverX

[29] = target: T29, NEK4 (Homo sapiens, UniProt P51957); test: Proqinase Kinase profiling; type: biochemical; settings: read-out: % inhibition at 100nM
T29 construct: purchased DiscoverX

[30] = target: T30, EIF2AK3 (Homo sapiens, UniProt Q9NZJ5); test: Proqinase Kinase profiling; type: biochemical; settings: read-out: % inhibition at 100nM
T30 construct: purchased DiscoverX

[31] = target: T31, PRKCZ (Homo sapiens, UniProt Q05513); test: Proqinase Kinase profiling; type: biochemical; settings: read-out: % inhibition at 100nM
T31 construct: purchased DiscoverX

[32] = target: T32, STK25 (Homo sapiens, UniProt O00506); test: Proqinase Kinase profiling; type: biochemical; settings: read-out: % inhibition at 100nM
T32 construct: purchased DiscoverX

[33] = target: T33, MAP3K7 (Homo sapiens, UniProt O43318); test: Proqinase Kinase profiling; type: biochemical; settings: read-out: % inhibition at 100nM
T33 construct: purchased DiscoverX

[34] = target: T34, MST4 (Homo sapiens, UniProt Q9P289); test: Proqinase Kinase profiling; type: biochemical; settings: read-out: % inhibition at 100nM
T34 construct: purchased DiscoverX

[35] = target: T35, RET (Homo sapiens, UniProt P07949); test: Proqinase Kinase profiling; type: biochemical; settings: read-out: % inhibition at 100nM
T35 construct: purchased DiscoverX
T35 sequence (P07949 29-1114): as the sequence (P07949 29-1114 E762Q) above, with Q734E counted along it

[36] = target: T36, NUAK1 (Homo sapiens, UniProt O60285); test: Proqinase Kinase profiling; type: biochemical; settings: read-out: % inhibition at 100nM
T36 construct: purchased DiscoverX
T36 sequence (O60285 whole entry): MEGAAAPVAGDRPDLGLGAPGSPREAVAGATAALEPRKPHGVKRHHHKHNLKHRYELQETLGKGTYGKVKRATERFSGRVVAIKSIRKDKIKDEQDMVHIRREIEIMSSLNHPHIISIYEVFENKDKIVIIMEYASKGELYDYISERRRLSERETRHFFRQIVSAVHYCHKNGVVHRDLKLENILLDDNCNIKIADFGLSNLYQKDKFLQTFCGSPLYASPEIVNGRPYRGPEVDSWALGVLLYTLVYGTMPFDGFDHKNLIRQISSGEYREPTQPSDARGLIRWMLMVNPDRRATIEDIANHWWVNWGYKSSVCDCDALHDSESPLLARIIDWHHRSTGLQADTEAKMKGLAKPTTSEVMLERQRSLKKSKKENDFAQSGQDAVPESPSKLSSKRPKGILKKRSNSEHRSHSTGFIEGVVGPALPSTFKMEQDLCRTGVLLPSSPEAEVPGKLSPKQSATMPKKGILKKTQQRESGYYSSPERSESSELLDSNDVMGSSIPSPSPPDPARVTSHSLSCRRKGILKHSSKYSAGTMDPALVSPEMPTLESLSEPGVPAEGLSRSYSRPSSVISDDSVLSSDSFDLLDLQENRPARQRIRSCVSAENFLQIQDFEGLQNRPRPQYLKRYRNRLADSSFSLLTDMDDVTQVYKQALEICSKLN

[37] = target: T37, EPHA1 (Homo sapiens, UniProt P21709); test: Proqinase Kinase profiling; type: biochemical; settings: read-out: % inhibition at 100nM
T37 construct: purchased DiscoverX

[38] = target: T38, FLT3_D835Y (Homo sapiens, UniProt P36888, D835Y); test: Proqinase Kinase profiling; type: biochemical; settings: read-out: % inhibition at 100nM
T38 construct: purchased DiscoverX

[39] = target: T39, FGFR1 (Homo sapiens, UniProt P11362); test: Proqinase Kinase profiling; type: biochemical; settings: read-out: % inhibition at 100nM
T39 construct: purchased DiscoverX

[40] = target: T40, KIT (Homo sapiens, UniProt P10721); test: Proqinase Kinase profiling; type: biochemical; settings: read-out: % inhibition at 100nM
T40 construct: purchased DiscoverX

[41] = target: T41, CDK9_cyclinK (Homo sapiens, UniProt P50750); test: Proqinase Kinase profiling; type: biochemical; settings: read-out: % inhibition at 100nM
T41 construct: purchased DiscoverX

SMILES: Clc1cc2cc(c1)-c1cnn3ccc(nc13)NCCOCCO2 [OD36]
- inhibition at 0.1 µM [1]: 7%
- inhibition at 0.1 µM [2]: 17%
- inhibition at 0.1 µM [3]: -6%
- inhibition at 0.1 µM [4]: 7%
- inhibition at 0.1 µM [5]: 16%
- inhibition at 0.1 µM [6]: -30%
- inhibition at 0.1 µM [7]: 17%
- inhibition at 0.1 µM [8]: 13%
- inhibition at 0.1 µM [9]: 6%
- inhibition at 0.1 µM [10]: 0%
- inhibition at 0.1 µM [11]: 18%
- inhibition at 0.1 µM [12]: 35%
- Inhibition of caALK2-driven BRE-LUC activity [13]: exclusively inhibited ALK2
- inhibition at 0.1 µM [14]: 14%
- inhibition at 0.1 µM [15]: 32%
- inhibition at 0.1 µM [16]: 0%
- inhibition at 0.1 µM [17]: 33%
- inhibition at 0.1 µM [18]: 11%
- inhibition at 0.1 µM [19]: 33%
- inhibition at 0.1 µM [20]: 3%
- inhibition at 0.1 µM [21]: 10%
- inhibition at 0.1 µM [22]: 6%
- inhibition at 0.1 µM [23]: 14%
- inhibition at 0.1 µM [24]: 11%
- inhibition at 0.1 µM [25]: 8%
- inhibition at 0.1 µM [26]: 49%
- inhibition at 0.1 µM [27]: 26%
- inhibition at 0.1 µM [28]: 7%
- inhibition at 0.1 µM [29]: 2%
- inhibition at 0.1 µM [30]: 1%
- inhibition at 0.1 µM [31]: -3%
- inhibition at 0.1 µM [32]: 1%
- inhibition at 0.1 µM [33]: 3%
- inhibition at 0.1 µM [34]: 3%
- inhibition at 0.1 µM [35]: 27%
- inhibition at 0.1 µM [36]: 6%
- inhibition at 0.1 µM [37]: 6%
- inhibition at 0.1 µM [38]: 62%
- inhibition at 0.1 µM [39]: 14%
- inhibition at 0.1 µM [40]: 33%
- inhibition at 0.1 µM [41]: 16%

SMILES: Cc1cc2cc(c1)-c1cnn3ccc(nc13)NCCNC(=O)CCN(C)C2 [OD52]
- inhibition at 0.1 µM [1]: 5%
- inhibition at 0.1 µM [2]: -10%
- inhibition at 0.1 µM [3]: 3%
- inhibition at 0.1 µM [4]: -13%
- inhibition at 0.1 µM [5]: -4%
- inhibition at 0.1 µM [6]: -5%
- inhibition at 0.1 µM [7]: -4%
- inhibition at 0.1 µM [8]: -3%
- inhibition at 0.1 µM [9]: -4%
- inhibition at 0.1 µM [10]: 6%
- inhibition at 0.1 µM [11]: 19%
- inhibition at 0.1 µM [12]: -5%
- Inhibition of caALK2-driven BRE-LUC activity [13]: exclusively inhibited ALK2
- inhibition at 0.1 µM [14]: 3%
- inhibition at 0.1 µM [15]: 12%
- inhibition at 0.1 µM [16]: 3%
- inhibition at 0.1 µM [17]: 33%
- inhibition at 0.1 µM [18]: -9%
- inhibition at 0.1 µM [19]: 19%
- inhibition at 0.1 µM [20]: -23%
- inhibition at 0.1 µM [21]: -9%
- inhibition at 0.1 µM [22]: -3%
- inhibition at 0.1 µM [23]: 4%
- inhibition at 0.1 µM [24]: 5%
- inhibition at 0.1 µM [25]: -6%
- inhibition at 0.1 µM [26]: 22%
- inhibition at 0.1 µM [27]: 0%
- inhibition at 0.1 µM [28]: 5%
- inhibition at 0.1 µM [29]: -3%
- inhibition at 0.1 µM [30]: -14%
- inhibition at 0.1 µM [31]: 4%
- inhibition at 0.1 µM [32]: 2%
- inhibition at 0.1 µM [33]: -6%
- inhibition at 0.1 µM [34]: -17%
- inhibition at 0.1 µM [35]: 28%
- inhibition at 0.1 µM [36]: -4%
- inhibition at 0.1 µM [37]: -1%
- inhibition at 0.1 µM [38]: 4%
- inhibition at 0.1 µM [39]: 5%
- inhibition at 0.1 µM [40]: -4%
- inhibition at 0.1 µM [41]: -7%
